# Measurements published in US11261152B2, “Inhibitors of the N-terminal domain of the androgen receptor” (The Regents of the University of California, priority 2017, dated 2022).
# “Also recorded” adds a separate entry of the source.
# How the values were obtained:
# [1] = tested on: AR positive PCa cells (LNCaP, LNCaP-AR, CWR22, 22Rv1, LAPC4); test: MTT / CellTiter GLO cell viability, AR positive prostate cancer cells; conditions: result in words
# Description: (§2) The results are means of quadruplicate expts±s.d. Top panel: CellTiter GLO luminescent bioassay (arbitrary units on vertical axis). Bottom panel: classical MTT assay ([blue/yellow]=[viable/non-viable]).
# (§3) Experiments were performed in quadruplicate; results are means+/−s.d.
# Results were normalized to that of vehicle control. Experiments were performed in quadruplicate; results are means+/−s.d.
# Next, the effects of the compounds on growth of prostate cancer cell lines in vitro were evaluated.
# [2] = tested on: AR-null PCa cells (DU145, PC3); test: MTT / CellTiter GLO cell viability, AR-null prostate cancer cells; conditions: result in words
# Description: as §2, §3
# AR null PC3 cells were exposed to the indicated compounds for 6 days; cell viability was measured by MTT assay. Results were normalized to that of vehicle control. Experiments were performed in quadruplicate; results are means+/−s.d.
# For each compound and concentration in the figure, the bars represent relative cell viability of 22Rv1, LAPC4, and DU145, from left to right.
# For each compound and concentration in the figure, the bars represent relative cell viability of CWR22 and PC3, from left to right.
# [3] = tested on: non-AR-dependent reporter systems; test: Non-AR-dependent reporter systems; type: cell-based; conditions: result in words
# Excerpt: (§1) Additional compounds have been generated with sequential numbering through JN136. In vitro biologic activity and biochemical activity/selectivity for AR inhibition have been tested for JN104-133.
# [4] = tested on: LNCaP-AR castration resistant cell line; test: LNCaP-AR castration resistant xenograft in castrated nude mice; type: in vivo
# Description: FIG. 12A. In vivo effects of JN series compounds.
# FIG. 12B. In vivo effects of JN series compounds.
# Selected compounds were tested in a mouse xenograft model. In this model, the LNCaP-AR castration resistant cell line was grown subcutaneously in the flanks of castrated nude mice. When tumors reached 150-200 mm^3, mice were administered selected JN series compounds, vehicle or positive control by oral gavage once per day for five days per week (Mon-Fri). […].
# [5] = tested on: androgen response element (ARE); test: ARE reporter assay (tandem copies of the androgen response element); type: cell-based; conditions: result in words
# Description: FIG. 11A. Effects of JN series compounds in reporter assays for androgen response element. Experiments were performed in triplicate and results are means+/−s.d.
# [6] = tested on: AR transcriptional activity (MMTV reporter); test: MMTV reporter assay; type: cell-based; conditions: result in words
# [7] = tested on: AR transcriptional activity (PSA promoter/enhancer reporter); test: PSA promoter/enhancer reporter assay; type: cell-based; conditions: result in words
# Excerpt: as §1
SMILES,growth inhibitory / suppressive effects as compared to JN018 [1],off target effects on AR-null prostate cancer cell lines compared to JN018 [2],effects on non-AR-dependent reporter systems [3],"tumor growth of LNCaP-AR model in castrated nude mice ([4]; oral gavage once per day, five days per week (Mon-Fri))","signs of toxicity in mice ([4]; xenograft study, oral gavage Mon-Fri)",reporter activity driven by the ARE [5],reporter activity driven by the MMTV promoter [6],AR transcriptional activity in PSA promoter/enhancer reporter [7]
C=C(C)C(=O)NC(=O)/C(=C/c1ccc(C(F)(F)F)cc1)c1ccccc1 [JN121],improved in vitro growth inhibitory effects,reduced off target effects,minimal effects,inhibit the growth; also recorded: demonstrated anti-tumor effects,limited or no outward signs of toxicity,excellent inhibitory effects,excellent inhibitory effects,excellent inhibitory effects
C=C(C)C(=O)NC(=O)/C(=C/c1ccc(Cl)cc1)c1ccc(F)cc1F [JN118],improved in vitro growth inhibitory effects,reduced off target effects,minimal effects,–,–,excellent inhibitory effects,excellent inhibitory effects,excellent inhibitory effects
